{"source": "patent US10322111B2", "about": "“Chemokine receptor binding heterocyclic compounds with enhanced efficacy” (Genzyme Corporation, priority 2001, dated 2019)", "system": "CFU-GM progenitor cells", "conditions": "80 μg/kg s.c.; for % CHG, CFU-GM, agar culture / mean fold change compared to T 0, CFU-GM, agar culture, MEAN: all five donors", "note": "Like-named read-outs stand apart in the source and are kept apart here."}
{"molecule": "c1cc(CN2CCCNCCNCCCNCC2)ccc1CN1CCCNCCNCCCNCC1", "note": "[AMD3100, 1,1′-[1,4-phenylene-bis(methylene)]-bis-1,4,8,11-tetraazacyclotetradecane]", "values": [{"measurement": "Absolute # of Progenitors per ML, CFU-GM, AGAR Culture", "setting": "P1, T = 1 h after injection", "value": 710, "unit": "per ML"}, {"measurement": "fold change from T=0, CFU-GM, agar culture", "setting": "P1, T = 1 h after injection", "value": 3.05, "unit": "fold"}, {"measurement": "Absolute # of Progenitors per ML, CFU-GM, AGAR Culture", "setting": "P1, T = 3 h after injection", "value": 2070, "unit": "per ML"}, {"measurement": "fold change from T=0, CFU-GM, agar culture", "setting": "P1, T = 3 h after injection", "value": 8.88, "unit": "fold"}, {"measurement": "Absolute # of Progenitors per ML, CFU-GM, AGAR Culture", "setting": "P1, T = 6 h after injection", "value": 4142, "unit": "per ML"}, {"measurement": "fold change from T=0, CFU-GM, agar culture", "setting": "P1, T = 6 h after injection", "value": 17.77, "unit": "fold"}, {"measurement": "Absolute # of Progenitors per ML, CFU-GM, AGAR Culture", "setting": "P2, T = 1 h after injection", "value": 376, "unit": "per ML"}, {"measurement": "fold change from T=0, CFU-GM, agar culture", "setting": "P2, T = 1 h after injection", "value": 3.74, "unit": "fold"}, {"measurement": "Absolute # of Progenitors per ML, CFU-GM, AGAR Culture", "setting": "P2, T = 3 h after injection", "value": 953, "unit": "per ML"}, {"measurement": "fold change from T=0, CFU-GM, agar culture", "setting": "P2, T = 3 h after injection", "value": 9.49, "unit": "fold"}, {"measurement": "Absolute # of Progenitors per ML, CFU-GM, AGAR Culture", "setting": "P2, T = 6 h after injection", "value": 2409, "unit": "per ML"}, {"measurement": "fold change from T=0, CFU-GM, agar culture", "setting": "P2, T = 6 h after injection", "value": 24.01, "unit": "fold"}, {"measurement": "Absolute # of Progenitors per ML, CFU-GM, AGAR Culture", "setting": "P2, T = 9 h after injection", "value": 1032, "unit": "per ML"}, {"measurement": "fold change from T=0, CFU-GM, agar culture", "setting": "P2, T = 9 h after injection", "value": 10.28, "unit": "fold"}, {"measurement": "Absolute # of Progenitors per ML, CFU-GM, AGAR Culture", "setting": "P2, T = 24 h after injection", "value": 371, "unit": "per ML"}, {"measurement": "fold change from T=0, CFU-GM, agar culture", "setting": "P2, T = 24 h after injection", "value": 3.69, "unit": "fold"}, {"measurement": "Absolute # of Progenitors per ML, CFU-GM, AGAR Culture", "setting": "P3, T = 1 h after injection", "value": 234, "unit": "per ML"}, {"measurement": "fold change from T=0, CFU-GM, agar culture", "setting": "P3, T = 1 h after injection", "value": 1.67, "unit": "fold"}, {"measurement": "Absolute # of Progenitors per ML, CFU-GM, AGAR Culture", "setting": "P3, T = 3 h after injection", "value": 1049, "unit": "per ML"}, {"measurement": "fold change from T=0, CFU-GM, agar culture", "setting": "P3, T = 3 h after injection", "value": 7.47, "unit": "fold"}, {"measurement": "Absolute # of Progenitors per ML, CFU-GM, AGAR Culture", "setting": "P3, T = 6 h after injection", "value": 1972, "unit": "per ML"}, {"measurement": "fold change from T=0, CFU-GM, agar culture", "setting": "P3, T = 6 h after injection", "value": 14.04, "unit": "fold"}, {"measurement": "Absolute # of Progenitors per ML, CFU-GM, AGAR Culture", "setting": "P3, T = 9 h after injection", "value": 1085, "unit": "per ML"}, {"measurement": "fold change from T=0, CFU-GM, agar culture", "setting": "P3, T = 9 h after injection", "value": 7.72, "unit": "fold"}, {"measurement": "Absolute # of Progenitors per ML, CFU-GM, AGAR Culture", "setting": "P3, T = 24 h after injection", "value": 159, "unit": "per ML"}, {"measurement": "fold change from T=0, CFU-GM, agar culture", "setting": "P3, T = 24 h after injection", "value": 1.13, "unit": "fold"}, {"measurement": "Absolute # of Progenitors per ML, CFU-GM, AGAR Culture", "setting": "P4, T = 1 h after injection", "value": 336, "unit": "per ML"}, {"measurement": "fold change from T=0, CFU-GM, agar culture", "setting": "P4, T = 1 h after injection", "value": 2.71, "unit": "fold"}, {"measurement": "Absolute # of Progenitors per ML, CFU-GM, AGAR Culture", "setting": "P4, T = 3 h after injection", "value": 1299, "unit": "per ML"}, {"measurement": "fold change from T=0, CFU-GM, agar culture", "setting": "P4, T = 3 h after injection", "value": 10.46, "unit": "fold"}, {"measurement": "Absolute # of Progenitors per ML, CFU-GM, AGAR Culture", "setting": "P4, T = 6 h after injection", "value": 1623, "unit": "per ML"}, {"measurement": "fold change from T=0, CFU-GM, agar culture", "setting": "P4, T = 6 h after injection", "value": 13.07, "unit": "fold"}, {"measurement": "Absolute # of Progenitors per ML, CFU-GM, AGAR Culture", "setting": "P4, T = 9 h after injection", "value": 1268, "unit": "per ML"}, {"measurement": "fold change from T=0, CFU-GM, agar culture", "setting": "P4, T = 9 h after injection", "value": 10.22, "unit": "fold"}, {"measurement": "Absolute # of Progenitors per ML, CFU-GM, AGAR Culture", "setting": "P4, T = 24 h after injection", "value": 162, "unit": "per ML"}, {"measurement": "fold change from T=0, CFU-GM, agar culture", "setting": "P4, T = 24 h after injection", "value": 1.30, "unit": "fold"}, {"measurement": "Absolute # of Progenitors per ML, CFU-GM, AGAR Culture", "setting": "P5, T = 1 h after injection", "value": 298, "unit": "per ML"}, {"measurement": "Absolute # of Progenitors per ML, CFU-GM, AGAR Culture", "setting": "P5, T = 3 h after injection", "value": 664, "unit": "per ML"}, {"measurement": "Absolute # of Progenitors per ML, CFU-GM, AGAR Culture", "setting": "P5, T = 6 h after injection", "value": 2153, "unit": "per ML"}, {"measurement": "Absolute # of Progenitors per ML, CFU-GM, AGAR Culture", "setting": "P5, T = 9 h after injection", "value": 1326, "unit": "per ML"}, {"measurement": "Absolute # of Progenitors per ML, CFU-GM, AGAR Culture", "setting": "P5, T = 24 h after injection", "value": 229, "unit": "per ML"}, {"measurement": "fold change from T=0, CFU-GM, agar culture", "setting": "P6, T = 1 h after injection", "value": 2.87, "unit": "fold"}, {"measurement": "fold change from T=0, CFU-GM, agar culture", "setting": "P6, T = 3 h after injection", "value": 6.40, "unit": "fold"}, {"measurement": "fold change from T=0, CFU-GM, agar culture", "setting": "P6, T = 6 h after injection", "value": 20.75, "unit": "fold"}, {"measurement": "fold change from T=0, CFU-GM, agar culture", "setting": "P6, T = 9 h after injection", "value": 12.78, "unit": "fold"}, {"measurement": "fold change from T=0, CFU-GM, agar culture", "setting": "P6, T = 24 h after injection", "value": 2.20, "unit": "fold"}, {"measurement": "% CHG, CFU-GM, agar culture", "setting": "T = 1 h after injection", "value": 180.8, "unit": "%"}, {"measurement": "mean fold change compared to T 0, CFU-GM, agar culture, MEAN", "setting": "T = 1 h after injection", "value": 2.81, "unit": "fold"}, {"measurement": "% CHG, CFU-GM, agar culture", "setting": "T = 3 h after injection", "value": 754.1, "unit": "%"}, {"measurement": "mean fold change compared to T 0, CFU-GM, agar culture, MEAN", "setting": "T = 3 h after injection", "value": 8.54, "unit": "fold"}, {"measurement": "% CHG, CFU-GM, agar culture", "setting": "T = 6 h after injection", "value": 1692.8, "unit": "%"}, {"measurement": "mean fold change compared to T 0, CFU-GM, agar culture, MEAN", "setting": "T = 6 h after injection", "value": 17.93, "unit": "fold"}, {"measurement": "% CHG, CFU-GM, agar culture", "setting": "T = 9 h after injection", "value": 924.9, "unit": "%"}, {"measurement": "mean fold change compared to T 0, CFU-GM, agar culture, MEAN", "setting": "T = 9 h after injection", "value": 10.25, "unit": "fold"}, {"measurement": "% CHG, CFU-GM, agar culture", "setting": "T = 24 h after injection", "value": 108.3, "unit": "%"}, {"measurement": "mean fold change compared to T 0, CFU-GM, agar culture, MEAN", "setting": "T = 24 h after injection", "value": 2.08, "unit": "fold"}]}
